# Where two headings read alike, the source gives them in different places.
# Experiments:
# [1] = test system: P388 murine leukemia cells; assay: In vitro cytotoxicity, one-hour exposure, clonogenic survival of P388 cells; format: cell-based; settings: Mus musculus, read-out: in vitro cytotoxicity IC50, 1 hr exp.; P388, 1 hr exposure
# Experimental: (§1) In vitro cytotoxicity was assayed by determining cell survival following exposure of P388 murine leukemia cells to a range of test compound concentrations. Cytotoxicity was quantitated following either a one-hour exposure or continuous exposure of P388 cells to test compound.
# (§2) A Manual of Basic Technique. […] Briefly, following drug exposure cells were plated in soft agar and incubated (37°, 5% CO2) for 7-10 days during which time viable cells form visible colonies. Cytotoxicity following continuous exposure of cells to test compound was assayed by quantitating total P388 cells on a Coultier Counter following a 48-hour co-incubation of test compound with cells. P388 cells were maintained in log phase throughout the duration of cytotoxicity assays.
# (§3) The percentage of cells surviving relative to an untreated control was graphed as a function of increasing drug concentration.
# human topoisomerase II = molecular target: T1, human topoisomerase II (Homo sapiens, UniProt P11388); assay: Mammalian topoisomerase II inhibition assay (topo II covalently attached to DNA, relative to mAMSA); format: biochemical; settings: read-out: topo II inh. EC50
# T1 construct: Topo II was purified from late log phase suspension cultures of HeLa WIS; endogenous in cells; host or cells: HeLa WIS
# T1 sequence (P11388 whole entry): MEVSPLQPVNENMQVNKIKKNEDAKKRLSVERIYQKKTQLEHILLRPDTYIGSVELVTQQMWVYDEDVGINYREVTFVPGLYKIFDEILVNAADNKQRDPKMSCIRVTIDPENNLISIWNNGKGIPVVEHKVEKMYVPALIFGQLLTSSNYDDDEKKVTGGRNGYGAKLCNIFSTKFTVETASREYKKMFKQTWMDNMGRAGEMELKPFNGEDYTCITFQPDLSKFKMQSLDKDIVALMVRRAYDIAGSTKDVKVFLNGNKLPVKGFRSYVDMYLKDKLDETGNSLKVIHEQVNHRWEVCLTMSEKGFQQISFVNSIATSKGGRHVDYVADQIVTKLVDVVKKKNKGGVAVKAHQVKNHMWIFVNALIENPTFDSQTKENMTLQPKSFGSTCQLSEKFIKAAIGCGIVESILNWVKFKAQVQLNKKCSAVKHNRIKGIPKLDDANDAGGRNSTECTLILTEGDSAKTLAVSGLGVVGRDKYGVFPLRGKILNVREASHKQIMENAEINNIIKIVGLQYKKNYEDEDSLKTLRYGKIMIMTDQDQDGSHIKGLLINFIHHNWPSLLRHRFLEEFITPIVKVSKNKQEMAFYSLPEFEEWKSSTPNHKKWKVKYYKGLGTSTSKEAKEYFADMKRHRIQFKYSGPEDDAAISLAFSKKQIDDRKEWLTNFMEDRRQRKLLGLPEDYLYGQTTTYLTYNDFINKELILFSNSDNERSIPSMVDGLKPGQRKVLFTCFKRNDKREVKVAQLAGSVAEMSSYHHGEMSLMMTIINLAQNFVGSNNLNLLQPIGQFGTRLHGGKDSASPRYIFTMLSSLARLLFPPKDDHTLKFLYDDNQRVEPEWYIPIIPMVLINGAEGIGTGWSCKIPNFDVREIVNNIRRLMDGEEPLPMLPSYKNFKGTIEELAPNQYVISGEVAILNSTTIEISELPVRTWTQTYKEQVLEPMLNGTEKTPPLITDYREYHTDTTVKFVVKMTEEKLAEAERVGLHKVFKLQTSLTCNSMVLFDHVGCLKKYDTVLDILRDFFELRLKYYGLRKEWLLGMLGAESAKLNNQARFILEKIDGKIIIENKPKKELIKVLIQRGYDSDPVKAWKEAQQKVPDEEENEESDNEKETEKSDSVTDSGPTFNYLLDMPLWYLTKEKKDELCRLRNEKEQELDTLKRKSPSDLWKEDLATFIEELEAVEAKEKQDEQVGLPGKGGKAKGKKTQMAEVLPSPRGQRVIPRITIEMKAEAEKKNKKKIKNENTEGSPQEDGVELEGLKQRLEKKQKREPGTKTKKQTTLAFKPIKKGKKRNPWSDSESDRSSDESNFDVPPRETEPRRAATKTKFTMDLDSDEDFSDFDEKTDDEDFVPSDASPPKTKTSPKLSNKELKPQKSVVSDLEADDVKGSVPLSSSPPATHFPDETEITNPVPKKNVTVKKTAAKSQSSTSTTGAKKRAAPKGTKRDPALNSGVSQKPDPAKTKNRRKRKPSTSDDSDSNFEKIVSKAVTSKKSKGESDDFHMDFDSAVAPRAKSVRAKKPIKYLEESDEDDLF
# Text: The inhibition of human topoisomerase II (hereafter topo II) was quantitated by a procedure adapted from that described by Trask et al., EMBO J., 3, 671-676 (1984). The assay quantitates the amount of topo II covalently attached to DNA at equilibrium during a topo II reaction. This assay determines the potential of a compound to stabilize this complex, which potential is closely related to the cytotoxicity of the compound.
# Topo II was purified from late log phase suspension cultures of HeLa WIS by an adaptation of the method described by Per et al., Mol. Pharmacol., 32, 17-25 (1987).
# Assays (in duplicate) were assembled at 4° C. Assay mix (25 μl) was distributed in Beckman (No. 265270) 1.5 mL microtiter tubes followed by the addition of 5 μl test compound to yield the final concentrations of assay components:
# The assay mix including the test compound was incubated for 20 minutes at 37° C. The reaction was terminated at 37° C. by the addition of 3 μl 10% SDS followed by the addition of 266 μl 10 mM Tris-Cl pH 7.5, 20 μg/ml BSA, 20 μg/ml calf thymus DNA, 1% SDS.
# A SDS/protein precipitate was formed by the addition of 28 μl 2.5M KCl followed by chilling on ice for a minimum of 10 minutes. The precipitate was collected and washed with a Brandell cell harvester on a GFB glass fiber filter membrane as follows. The contents of the assay tube were drawn up into the harvester. The tube was then rinsed 7× with 10 mM Tris-Cl pH 7.5, 1 mM EDTA and 100 mM KCl. The precipitate was washed with 1 L of a solution of 10 mM Tris-Cl pH 7.5, 1 mMEDTA, 100 mM KCl followed by 1 L of 95% ethyl alcohol and finally 0.5 L 70% of ethyl alcohol (per 48 samples in each case). After drying, CPM was determined by liquid scintillation counting with 5 ml Biofluor (NEN Research Products) or Readisafe (Beckman Instruments Inc.) cocktail.
# Preparation of test compound--A stock solution (6 mg/ml) of test compound was prepared either in 0.1N sodium hydroxide or 0.2N hydrogen chloride. This solution then was diluted 1/5 into water and serially thereafter in either 0.02N sodium hydroxide or 0.04N hydrogen chloride, respectively. The stock solution and serial dilution of the test compound was stored at -20° C. prior to testing.
# Screening of test compound--As an initial screen, the test compound was tested at a final concentration of 2, 20 and 200 μg/ml. The compound was then retested at a range of concentrations (usually 2-3×steps) bridging their approximate EC50 's, as estimated by the prescreen.
# Controls--A solvent control which indicates the base level of topo II-DNA complex formed in the absence of the test compound was included in each test. A control, in which topo II was omitted, was included for each test compound at the highest drug concentration tested.
# Reference Agent--A dose response curve with mAMSA at 0.01, 0.08, 0.16, 0.32, 1.0 and 10 μg/ml was included in each test.
# The maximal DNA-topo II complex formed is taken as that equal to that formed at the nearly saturating dose of mAMSA (10 μg/ml).
# [2] = test system: P388 murine leukemia cells; assay: In vitro cytotoxicity, continuous (48-hour) exposure of P388 cells; format: cell-based; settings: Mus musculus; P388, continuous exposure (48-hour); read-out: in vitro cytotoxicity IC50, cont. exp.
# Experimental: as §1, §2, §3
# [3] = conc. achieving 50% of maximal effect of mAMSA, topo II from HeLa cells
# [4] = footnote c: bell-shaped dose response curve noted, 50% of maximal effect of mAMSA
SMILES,IC50 [1] [nM],EC50 (human topoisomerase II; [3]) [µM],IC50 [2] [nM],EC50 (human topoisomerase II) [µM],EC50 (human topoisomerase II; [4]) [µM]
CO[C@@H]1CCCC[C@@H]1n1nc2c3cc(F)c(-c4cc(C)nc(C)c4)c(F)c3n(C3CC3)cc-2c1=O (relative stereo) [Example 45],570,6.3,,,
Cc1cc(-c2c(F)cc3c4nn(CC(F)(F)F)c(=O)c-4cn(C4CC4)c3c2F)cc(C)n1 [Example 2],,6.8,1400,,
"Cc1cc(-c2c(F)cc3c4nn(C(C)C)c(=O)c-4cn(C4CC4)c3c2F)cc(C)n1 [Example 3, 5-Cyclopropyl-6,8-difluoro-7-(2,6-dimethyl-4-pyridinyl)-2,5-dihydro-2-(2-propyl) -3H-pyrazolo[4,3-c]quinolin-3-one]",,5,530,,
"CCCCn1nc2c3cc(F)c(-c4cc(C)nc(C)c4)c(F)c3n(C3CC3)cc-2c1=O [Example 4, 2-(1-Butyl)-5-cyclopropyl-6,8-difluoro-2,5-dihydro-7-(2,6-dimethyl-4-pyridinyl) -3H-pyrazolo[4,3-c]quinolin-3-one]",,2.9,1500,,
"Cc1cc(-c2c(F)cc3c4nn(-c5ccccc5O)c(=O)c-4cn(C4CC4)c3c2F)cc(C)n1 [Example 5, 5-Cyclopropyl-6,8-difluoro-2,5-dihydro-2-(2-hydroxyphenyl)-7-(2,6-dimethyl-4-pyridinyl) -3H-pyrazolo[4,3-c]quinolin-3-one]",,1.2,150,,
Cc1cc(-c2c(F)cc3c4nn(C)c(=O)c-4cn(C4CC4)c3c2F)cc(C)n1 [Example 7],,5.9,510,,
Cc1cc(-c2c(F)cc3c4nn(C(C)(C)C)c(=O)c-4cn(C4CC4)c3c2F)cc(C)n1 [Example 8],,6.9,3500,,
CCOC(=O)Cn1nc2c3cc(F)c(-c4cc(C)nc(C)c4)c(F)c3n(C3CC3)cc-2c1=O [Example 9],,6.1,150,,
Cc1cc(-c2c(F)cc3c4nn(CCO)c(=O)c-4cn(C4CC4)c3c2F)cc(C)n1 [Example 10],,6.4,1400,,
Cc1cc(-c2c(F)cc3c4nn(CCCCO)c(=O)c-4cn(C4CC4)c3c2F)cc(C)n1 [Example 11],,4.2,880,,
COC(Cn1nc2c3cc(F)c(-c4cc(C)nc(C)c4)c(F)c3n(C3CC3)cc-2c1=O)OC [Example 12],,23,,,
Cc1cc(-c2c(F)cc3c4nn(CCC#N)c(=O)c-4cn(C4CC4)c3c2F)cc(C)n1 [Example 13],,6.7,1400,,
CCN(CC)CCn1nc2c3cc(F)c(-c4cc(C)nc(C)c4)c(F)c3n(C3CC3)cc-2c1=O [Example 15],450,,,93,
Cc1cc(-c2c(F)cc3c4nn(CCN5CCCCC5)c(=O)c-4cn(C4CC4)c3c2F)cc(C)n1 [Example 19],440,,,210,
Cc1ccc(-n2nc3c4cc(F)c(-c5cc(C)nc(C)c5)c(F)c4n(C4CC4)cc-3c2=O)cc1 [Example 24],,8.9,4900,,
Cc1cc(-c2c(F)cc3c4nn(-c5c(F)c(F)c(F)c(F)c5F)c(=O)c-4cn(C4CC4)c3c2F)cc(C)n1 [Example 25],,3.4,2200,,
COc1ccccc1-n1nc2c3cc(F)c(-c4cc(C)nc(C)c4)c(F)c3n(C3CC3)cc-2c1=O [Example 26],,5,340,,

SMILES,IC50 [1] [nM],EC50 (human topoisomerase II; [3]) [µM],IC50 [2] [nM],EC50 (human topoisomerase II) [µM],EC50 (human topoisomerase II; [4]) [µM]
Cc1cc(-c2c(F)cc3c4nn(-c5ccc(O)cc5)c(=O)c-4cn(C4CC4)c3c2F)cc(C)n1 [Example 27],,4.9,2600,,
Cc1cc(-c2c(F)cc3c4nn(-c5cccc6ccccc56)c(=O)c-4cn(C4CC4)c3c2F)cc(C)n1 [Example 28],,2.9,320,,
Cc1cc(-c2c(F)cc3c4nn(-c5ccccn5)c(=O)c-4cn(C4CC4)c3c2F)cc(C)n1 [Example 29],,2.8,740,,
Cc1cc(-c2c(F)cc3c4nn(-c5ccncc5)c(=O)c-4cn(C4CC4)c3c2F)cc(C)n1 [Example 30],,,1200,,8
Cc1cc(-c2c(F)cc3c4nn(Cc5ccccc5)c(=O)c-4cn(C4CC4)c3c2F)cc(C)n1 [Example 31],,3.7,140,,
COc1ccccc1Cn1nc2c3cc(F)c(-c4cc(C)nc(C)c4)c(F)c3n(C3CC3)cc-2c1=O [Example 32],,5.1,1200,,
Cc1cc(-c2c(F)cc3c4nn(Cc5ccccc5O)c(=O)c-4cn(C4CC4)c3c2F)cc(C)n1 [Example 33],,3.8,1400,,
COc1ccc(Cn2nc3c4cc(F)c(-c5cc(C)nc(C)c5)c(F)c4n(C4CC4)cc-3c2=O)cc1 [Example 34],,3.2,440,,
Cc1cc(-c2c(F)cc3c4nn(Cc5ccc(O)cc5)c(=O)c-4cn(C4CC4)c3c2F)cc(C)n1 [Example 35],,1.5,250,,
COc1cc(Cn2nc3c4cc(F)c(-c5cc(C)nc(C)c5)c(F)c4n(C4CC4)cc-3c2=O)cc(OC)c1OC [Example 36],,6.4,1200,,
Cc1cc(-c2c(F)cc3c4nn(CCc5ccccc5)c(=O)c-4cn(C4CC4)c3c2F)cc(C)n1 [Example 37],,5,2200,,
COc1ccccc1CCn1nc2c3cc(F)c(-c4cc(C)nc(C)c4)c(F)c3n(C3CC3)cc-2c1=O [Example 38],,11,,,
Cc1cc(-c2c(F)cc3c4nn(CCc5ccccc5O)c(=O)c-4cn(C4CC4)c3c2F)cc(C)n1 [Example 39],,,,,9.6
Cc1cc(-c2c(F)cc3c4nn(C5CCc6ccccc6C5)c(=O)c-4cn(C4CC4)c3c2F)cc(C)n1 (centres unmarked) [Example 44],,3.7,1500,,
Cc1cc(-c2c(F)cc3c4nn(C5CCC(C)CC5)c(=O)c-4cn(C4CC4)c3c2F)cc(C)n1 (centres unmarked) [Example 47],1400,3.1,,,
Cc1cc(-c2c(F)cc3c4nn(C5CCC(c6ccccc6)CC5)c(=O)c-4cn(C4CC4)c3c2F)cc(C)n1 (centres unmarked) [Example 48],8400,4.5,,,
"Cc1cc(-c2c(F)cc3c4nn(CC(=O)O)c(=O)c-4cn(C4CC4)c3c2F)cc(C)n1 [Example 53, 2-[5-Cyclopropyl-6,8-difluoro-2,5-dihydro-7-(2,6-dimethyl-4-pyridinyl)-3-oxo-3H-pyrazolo[4,3-c]quinolinyl]acetic acid]",,10,18000,,

# From patent US5334595A, “Pyrazoloquinolones as anticancer agents” (priority 1992, dated 1994)
